Values of other authors as cited in patent US5891889A, “Inhibitors of farnesyl-protein transferase” (Merck & Co., Inc., priority 1997, dated 1999).

Test system: farnesyl-protein transferase
Details: via inhibition of HMG-CoA reductase; literature

CC[C@H](C)C(=O)O[C@H]1CCC=C2C=C[C@H](C)[C@H](CC[C@@H]3C[C@@H](O)CC(=O)O3)[C@H]21 [compactin]
Indirect inhibition of farnesyl-protein transferase in vivo: Indirect inhibition of farnesyl-protein transferase in vivo has been demonstrated

CC[C@H](C)C(=O)O[C@H]1C[C@@H](C)C=C2C=C[C@H](C)[C@H](CC[C@@H]3C[C@@H](O)CC(=O)O3)[C@H]21 [lovastatin]
Indirect inhibition of farnesyl-protein transferase in vivo: Indirect inhibition of farnesyl-protein transferase in vivo has been demonstrated
